Experimental data from patent publication US8188277B2, “Aromatic compounds for suppressing the generation of collagen” (Otsuka Pharmaceutical Co., Ltd., priority 2004, dated 2012).
Where two headings read alike, the source gives them in different places.

Tests used:
[1] = tested on: LI90 cells, a human stellate cell line; assay: Collagen synthesis inhibition (3H-proline incorporation) in TGF-β1-stimulated LI90 cells; assay type: cell-based; conditions: 10 pM h-TGF-β1, 16 hours with test compound, 3H-proline labelling 24 hours, concentration at which T/C = 0.5, read-out: Collagen synthesis inhibitory activity IC50
Experimental: The cultured cells were then washed with D-PBS(−) (DULBECCO's phosphate buffered saline), and subsequently further cultured for 3 days in MEM (Eagle's minimum essential medium) supplemented with 0.1% fetal bovine serum. The cultured cells were again washed with D-PBS(−), and cultured for 16 hours in MEM (0.1% fetal bovine serum with respect to a total MEM volume) which contained a test compound and 10 pM h-TGF-β1 (human transforming growth factor β1). Next, the cultured LI90 cells were washed with D-PBS(−), and cultured for 24 hours in MEM containing ^3H-proline (radioactive labelled compound) and 0.25 mM ascorbic acid. The produced collagen was labelled with RI (radioactive isotope). From this culture supernatant, an acid-soluble fraction was extracted. Radioactivity was measured for this fraction. The measured value was taken to be the collagen synthesis activity.
Radioactivity of the culture supernatant cultured with the test compound was compared with that of the culture supernatant cultured without the test compound to calculate a collagen synthesis inhibitory activity (T/C) and determine a concentration (μM) at which collagen synthesis was inhibited by 50% (IC50=a concentration of the test compound at which T/C corresponded to 0.5). T/C=(Radioactivity of culture supernatant cultured with the test compound)/(radioactivity of culture supernatant cultured without the test compound)

`O=C(Nc1ccc(Oc2ccc(N3CCC(CC(=O)N4CCN(Cc5ccc6c(c5)OCO6)CC4)CC3)cc2)nc1)c1ccc(C(F)(F)F)cc1` [Example No. 319, N-[6-(4-{4-[2-(piperonyl-piperazin-1-yl)-2-oxoethyl]piperidin-1-yl}phenoxy)-pyridin-3-yl]-4-trifluoromethylbenzamide] gave an IC50 [1] of 0.0019 µM.
`O=C(Nc1ccc(Oc2ccc(CCC(=O)N3CCN(Cc4ccc5c(c4)OCO5)CC3)cc2)nc1)c1ccc(C(F)(F)F)cc1` [Example No. 1039, N-(6-{4-[3-(4-piperonylpiperazin-1-yl)-3-oxopropyl]phenoxy}pyridin-3-yl)-4-trifluoromethylbenzamide] gave an IC50 ([1]; Homo sapiens) of 0.022 µM.
Compound `Cc1cc(N(C)CC(=O)N2CCN(Cc3ccc4c(c3)OCO4)CC2)ccc1Oc1ccc(NC(=O)c2ccc(C(F)(F)F)cc2)cn1` [Example No. 1503, N-[6-(4-{[2-(4-piperonylpiperazin-1-yl)-2-oxoethyl]methylamino}-2-methylphenoxy)pyridin-3-yl]-4-trifluoromethylbenzamide] has an IC50 ([1]; Homo sapiens) of 0.0078 µM.
In the case of `O=C(Nc1ccc(Cl)c(Cl)c1)c1ccc(Oc2ccc(CCC(=O)N3CCN(Cc4ccc5c(c4)OCO5)CC3)cc2)nc1` [Example No. 2100, 6-{4-[3-(4-piperonylpiperazin-1-yl)-3-oxopropyl]phenoxy}-N-(3,4-dichlorophenyl)nicotinamide], the IC50 ([1]; Homo sapiens) is reported as 0.079 µM.
For `Cc1cc(N(C)CC(=O)N2CCN(Cc3ccc4c(c3)OCO4)CC2)ccc1Oc1ccc(NC(=O)c2ccc(-n3cccc3)cc2)cn1` [compound 2711, N-[6-(4-{[2-(4-piperonylpiperazin-1-yl)-2-oxoethyl]methylamino}-2-methylphenoxy)pyridin-3-yl]-4-pyrrole-1-ylbenzamide], the melting point was 163.1 to 166.5 °C.
`CCN(CC(=O)N1CCN(Cc2ccc3c(c2)OCO3)CC1)c1ccc(Oc2ccc(NS(=O)(=O)c3ccc(C(F)(F)F)cc3)cn2)c(F)c1` [compound 2712, N-[6-(4-{[2-(4-piperonylpiperazin-1-yl)-2-oxoethyl]ethylamino}-2-fluorophenoxy)pyridin-3-yl]-4-trifluoromethylbenzenesulfonamide] showed a melting point of 177.8 to 180.1 °C.
`O=C(Nc1ccc(Oc2ccc(C(O)CN3CCOCC3)cc2)c(F)c1)c1ccc(Cl)c(Cl)c1` (stereo not shown) [compound 2715, 3,4-dichloro-N-{3-fluoro-4-[4-(1-hydroxy-2-morpholine-4-ylethyl)phenoxy]phenyl}benzamide] gave a melting point of 169 to 170 °C.
